Measurements: BindingDB's records for patent US9694002 (Genentech Inc, 2017)

Biological target: Sodium channel protein type 9 subunit alpha (Homo sapiens, UniProt Q15858)
Assay: Radioligand Binding Assay
Conditions: pH 7.4; 25 °C
Method: Binding of this radioligand was preformed in 5 mL borosilicate glass test tubes at room temperature. […] Non-specific binding was determined in the presence of 1 uM unlabelled compound. […] [3H]compound bound to filters was quantified by liquid scintillation counting.

Chain of Sodium channel protein type 9 subunit alpha (Q15858 whole entry): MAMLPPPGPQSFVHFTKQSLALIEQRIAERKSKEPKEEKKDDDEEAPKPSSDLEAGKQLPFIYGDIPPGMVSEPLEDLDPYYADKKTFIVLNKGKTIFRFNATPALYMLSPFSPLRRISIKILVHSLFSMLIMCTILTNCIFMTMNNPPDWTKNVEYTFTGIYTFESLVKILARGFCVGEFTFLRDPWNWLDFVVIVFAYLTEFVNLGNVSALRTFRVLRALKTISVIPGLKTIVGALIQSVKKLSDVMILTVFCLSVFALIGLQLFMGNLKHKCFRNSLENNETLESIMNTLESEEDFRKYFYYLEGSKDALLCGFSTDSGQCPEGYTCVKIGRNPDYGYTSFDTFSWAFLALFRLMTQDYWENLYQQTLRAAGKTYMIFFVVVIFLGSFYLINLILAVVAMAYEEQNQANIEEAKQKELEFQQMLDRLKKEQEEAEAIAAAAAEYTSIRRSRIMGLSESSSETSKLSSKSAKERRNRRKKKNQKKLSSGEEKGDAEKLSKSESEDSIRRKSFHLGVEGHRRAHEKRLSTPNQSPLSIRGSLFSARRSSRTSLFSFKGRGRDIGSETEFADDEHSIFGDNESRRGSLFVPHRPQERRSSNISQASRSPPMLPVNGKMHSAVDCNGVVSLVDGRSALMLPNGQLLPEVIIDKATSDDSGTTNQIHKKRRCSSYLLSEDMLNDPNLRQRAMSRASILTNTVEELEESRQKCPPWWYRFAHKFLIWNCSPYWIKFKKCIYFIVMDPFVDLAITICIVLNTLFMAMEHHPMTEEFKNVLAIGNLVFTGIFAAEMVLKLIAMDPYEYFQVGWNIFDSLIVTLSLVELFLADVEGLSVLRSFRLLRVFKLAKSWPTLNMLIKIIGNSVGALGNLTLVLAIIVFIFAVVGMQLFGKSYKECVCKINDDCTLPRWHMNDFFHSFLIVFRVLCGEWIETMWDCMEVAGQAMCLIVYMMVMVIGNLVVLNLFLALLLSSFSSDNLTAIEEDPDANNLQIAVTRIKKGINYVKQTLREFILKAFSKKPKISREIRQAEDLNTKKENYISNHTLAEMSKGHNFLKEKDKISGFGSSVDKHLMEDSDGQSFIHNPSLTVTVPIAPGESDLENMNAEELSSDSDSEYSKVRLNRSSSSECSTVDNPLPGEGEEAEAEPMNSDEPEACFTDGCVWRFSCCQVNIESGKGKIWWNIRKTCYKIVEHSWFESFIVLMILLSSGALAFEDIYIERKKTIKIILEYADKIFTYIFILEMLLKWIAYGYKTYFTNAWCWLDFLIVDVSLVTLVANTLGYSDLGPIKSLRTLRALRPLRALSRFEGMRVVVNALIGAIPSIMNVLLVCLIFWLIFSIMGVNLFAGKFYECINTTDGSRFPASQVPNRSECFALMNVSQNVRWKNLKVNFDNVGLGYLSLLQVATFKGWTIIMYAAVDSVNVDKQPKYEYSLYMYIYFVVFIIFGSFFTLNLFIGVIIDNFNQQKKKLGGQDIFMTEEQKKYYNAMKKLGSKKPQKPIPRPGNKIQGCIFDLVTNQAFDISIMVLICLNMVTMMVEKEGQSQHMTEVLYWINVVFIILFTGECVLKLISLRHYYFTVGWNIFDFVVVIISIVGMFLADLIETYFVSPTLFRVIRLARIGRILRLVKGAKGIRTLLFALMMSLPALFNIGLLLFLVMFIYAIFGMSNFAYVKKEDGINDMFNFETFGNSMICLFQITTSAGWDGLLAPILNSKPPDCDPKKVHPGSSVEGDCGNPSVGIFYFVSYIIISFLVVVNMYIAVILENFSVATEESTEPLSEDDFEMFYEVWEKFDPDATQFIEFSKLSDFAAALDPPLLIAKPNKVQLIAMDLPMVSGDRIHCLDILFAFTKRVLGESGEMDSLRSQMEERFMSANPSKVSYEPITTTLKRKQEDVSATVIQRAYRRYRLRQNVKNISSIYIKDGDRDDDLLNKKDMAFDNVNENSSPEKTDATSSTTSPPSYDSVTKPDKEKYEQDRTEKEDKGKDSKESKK

Row | SMILES | IC50
1 | CS(=O)(=O)NC(=O)c1cc(C2CC2)c(CN2CCC(Oc3ccc(Cl)cc3)CC2)cc1F [US9694002, 503] | 30 nM
2 | O=C(NS(=O)(=O)C1CC1)c1cc(C2CC2)c(CN2CCC(Oc3ccc(Cl)cc3)CC2)cc1F [US9694002, 504] | 16 nM
